Source: US20240269139A1, “COMPOUNDS FOR TARGETED PROTEIN DEGRADATION OF KINASES” (DANA-FARBER CANCER INSTITUTE, INC., priority 2020, published 2024)
Where “and” joins values, the source holds several entries; their conditions need not be identical. Equal values may be shown once. Read-outs that look alike come from different tables or passages of the source.

Legend:
Format in all cases: cell-based
[1] = biological target: protein kinases (human kinome) (Homo sapiens, UniProt Q15118); settings: PDK1 Q15118
Chain of protein kinases (human kinome) (Homo sapiens, UniProt Q15118) (Q15118 29-436): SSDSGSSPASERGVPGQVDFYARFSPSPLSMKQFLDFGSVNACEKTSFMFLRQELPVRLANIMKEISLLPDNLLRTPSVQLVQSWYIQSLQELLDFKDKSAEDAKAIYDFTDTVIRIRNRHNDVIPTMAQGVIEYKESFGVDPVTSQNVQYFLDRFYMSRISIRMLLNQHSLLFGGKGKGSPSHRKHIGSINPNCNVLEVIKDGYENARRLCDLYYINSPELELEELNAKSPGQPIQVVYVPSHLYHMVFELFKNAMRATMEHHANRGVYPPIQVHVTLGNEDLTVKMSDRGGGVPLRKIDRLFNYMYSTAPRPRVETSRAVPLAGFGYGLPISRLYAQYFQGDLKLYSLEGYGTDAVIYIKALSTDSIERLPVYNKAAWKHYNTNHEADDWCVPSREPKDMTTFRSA

[2] = biological target: T1, protein kinases (human kinome) (Homo sapiens, UniProt Q14CZ7); settings: Accession Q14CZ7, direction down
T1 sequence (Q14CZ7 1-662): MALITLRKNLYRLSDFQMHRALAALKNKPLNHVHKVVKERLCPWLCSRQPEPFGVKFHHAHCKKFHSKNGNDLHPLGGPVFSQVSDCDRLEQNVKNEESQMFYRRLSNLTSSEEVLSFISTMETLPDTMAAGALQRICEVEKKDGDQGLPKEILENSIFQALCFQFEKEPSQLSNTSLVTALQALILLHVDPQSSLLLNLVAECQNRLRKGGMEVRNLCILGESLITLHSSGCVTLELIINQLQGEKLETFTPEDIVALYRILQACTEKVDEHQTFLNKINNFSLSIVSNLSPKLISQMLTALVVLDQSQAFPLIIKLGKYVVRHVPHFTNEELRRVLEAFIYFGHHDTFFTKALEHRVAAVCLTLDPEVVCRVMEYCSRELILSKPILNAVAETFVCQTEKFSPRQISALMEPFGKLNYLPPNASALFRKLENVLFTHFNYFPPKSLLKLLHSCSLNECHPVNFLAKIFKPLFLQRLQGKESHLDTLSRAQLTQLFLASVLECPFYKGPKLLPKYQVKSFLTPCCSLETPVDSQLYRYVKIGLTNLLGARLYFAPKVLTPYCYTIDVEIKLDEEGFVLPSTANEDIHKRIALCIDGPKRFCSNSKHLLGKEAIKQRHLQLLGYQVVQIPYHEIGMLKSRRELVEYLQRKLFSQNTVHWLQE

[3] = biological target: protein kinases (human kinome) (Homo sapiens, UniProt Q15119); settings: for logFC PDK2: Accession Q15119-1
[4] = biological target: protein kinases (human kinome) (Homo sapiens, UniProt Q00537); settings: for logFC of CDK17: Accession Q00537; for logFC CDK17 (Q00537): direction of change down
Chain of protein kinases (human kinome) (Homo sapiens, UniProt Q00537) (Q00537 whole entry): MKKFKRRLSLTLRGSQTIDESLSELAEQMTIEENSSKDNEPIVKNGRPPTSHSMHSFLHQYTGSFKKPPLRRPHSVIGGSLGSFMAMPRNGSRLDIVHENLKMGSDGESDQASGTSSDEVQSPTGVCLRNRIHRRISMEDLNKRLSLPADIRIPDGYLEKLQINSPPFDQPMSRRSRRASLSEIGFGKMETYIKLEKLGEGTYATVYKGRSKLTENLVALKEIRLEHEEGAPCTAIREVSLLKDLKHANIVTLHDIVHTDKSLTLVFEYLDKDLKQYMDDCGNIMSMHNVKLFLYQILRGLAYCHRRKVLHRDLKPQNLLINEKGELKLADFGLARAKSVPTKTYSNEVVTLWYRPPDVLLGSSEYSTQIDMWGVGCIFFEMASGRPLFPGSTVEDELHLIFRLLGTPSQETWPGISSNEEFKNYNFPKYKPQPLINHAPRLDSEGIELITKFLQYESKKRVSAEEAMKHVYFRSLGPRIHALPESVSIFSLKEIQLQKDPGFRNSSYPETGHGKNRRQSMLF

[5] = biological target: protein kinases (human kinome) (Homo sapiens, UniProt P50613); settings: for logFC CDK7: CDK7 P50613
Chain of protein kinases (human kinome) (Homo sapiens, UniProt P50613) (P50613 whole entry): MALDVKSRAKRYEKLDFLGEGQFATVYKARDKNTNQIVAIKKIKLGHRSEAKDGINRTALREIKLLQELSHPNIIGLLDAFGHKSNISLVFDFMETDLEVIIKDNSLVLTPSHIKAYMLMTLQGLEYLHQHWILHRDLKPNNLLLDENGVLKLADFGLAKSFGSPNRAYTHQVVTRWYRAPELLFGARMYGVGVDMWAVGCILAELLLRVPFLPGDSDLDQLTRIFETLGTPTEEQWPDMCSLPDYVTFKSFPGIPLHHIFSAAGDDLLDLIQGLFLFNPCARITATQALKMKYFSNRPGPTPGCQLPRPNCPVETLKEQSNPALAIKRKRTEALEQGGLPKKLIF

[6] = biological target: protein kinases (human kinome) (Homo sapiens, UniProt Q00535)
Chain of protein kinases (human kinome) (Homo sapiens, UniProt Q00535) (Q00535 whole entry): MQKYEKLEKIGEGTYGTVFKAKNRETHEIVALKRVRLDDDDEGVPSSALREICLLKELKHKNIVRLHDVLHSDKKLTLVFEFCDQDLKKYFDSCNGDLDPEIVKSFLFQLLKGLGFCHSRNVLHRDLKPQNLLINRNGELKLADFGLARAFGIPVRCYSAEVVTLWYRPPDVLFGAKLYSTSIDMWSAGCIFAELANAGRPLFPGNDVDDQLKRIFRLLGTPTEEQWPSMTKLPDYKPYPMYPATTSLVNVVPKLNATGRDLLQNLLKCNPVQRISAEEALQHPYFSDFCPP

[7] = biological target: protein kinases (human kinome) (Homo sapiens, UniProt Q8TDR2)
Chain of protein kinases (human kinome) (Homo sapiens, UniProt Q8TDR2) (Q8TDR2 whole entry): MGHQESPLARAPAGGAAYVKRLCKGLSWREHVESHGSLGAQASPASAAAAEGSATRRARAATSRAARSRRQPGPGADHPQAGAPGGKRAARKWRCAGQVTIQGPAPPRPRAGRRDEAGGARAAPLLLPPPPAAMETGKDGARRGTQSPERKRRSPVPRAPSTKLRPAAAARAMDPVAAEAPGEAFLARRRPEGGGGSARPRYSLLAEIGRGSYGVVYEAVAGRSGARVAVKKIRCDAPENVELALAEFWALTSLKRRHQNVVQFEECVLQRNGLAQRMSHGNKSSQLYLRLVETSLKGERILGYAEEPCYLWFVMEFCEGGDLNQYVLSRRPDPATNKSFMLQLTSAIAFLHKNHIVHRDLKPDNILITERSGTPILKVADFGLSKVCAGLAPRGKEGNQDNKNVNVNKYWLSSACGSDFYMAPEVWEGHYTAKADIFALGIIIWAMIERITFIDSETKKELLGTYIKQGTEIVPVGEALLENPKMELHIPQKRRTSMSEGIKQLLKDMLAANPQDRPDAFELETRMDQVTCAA

[8] = biological target: protein kinases (human kinome) (Homo sapiens, UniProt O43683); settings: for logFC: BUB1 (O43683); for logFC BUB1 (O43683): direction down
Chain of protein kinases (human kinome) (Homo sapiens, UniProt O43683) (O43683 whole entry): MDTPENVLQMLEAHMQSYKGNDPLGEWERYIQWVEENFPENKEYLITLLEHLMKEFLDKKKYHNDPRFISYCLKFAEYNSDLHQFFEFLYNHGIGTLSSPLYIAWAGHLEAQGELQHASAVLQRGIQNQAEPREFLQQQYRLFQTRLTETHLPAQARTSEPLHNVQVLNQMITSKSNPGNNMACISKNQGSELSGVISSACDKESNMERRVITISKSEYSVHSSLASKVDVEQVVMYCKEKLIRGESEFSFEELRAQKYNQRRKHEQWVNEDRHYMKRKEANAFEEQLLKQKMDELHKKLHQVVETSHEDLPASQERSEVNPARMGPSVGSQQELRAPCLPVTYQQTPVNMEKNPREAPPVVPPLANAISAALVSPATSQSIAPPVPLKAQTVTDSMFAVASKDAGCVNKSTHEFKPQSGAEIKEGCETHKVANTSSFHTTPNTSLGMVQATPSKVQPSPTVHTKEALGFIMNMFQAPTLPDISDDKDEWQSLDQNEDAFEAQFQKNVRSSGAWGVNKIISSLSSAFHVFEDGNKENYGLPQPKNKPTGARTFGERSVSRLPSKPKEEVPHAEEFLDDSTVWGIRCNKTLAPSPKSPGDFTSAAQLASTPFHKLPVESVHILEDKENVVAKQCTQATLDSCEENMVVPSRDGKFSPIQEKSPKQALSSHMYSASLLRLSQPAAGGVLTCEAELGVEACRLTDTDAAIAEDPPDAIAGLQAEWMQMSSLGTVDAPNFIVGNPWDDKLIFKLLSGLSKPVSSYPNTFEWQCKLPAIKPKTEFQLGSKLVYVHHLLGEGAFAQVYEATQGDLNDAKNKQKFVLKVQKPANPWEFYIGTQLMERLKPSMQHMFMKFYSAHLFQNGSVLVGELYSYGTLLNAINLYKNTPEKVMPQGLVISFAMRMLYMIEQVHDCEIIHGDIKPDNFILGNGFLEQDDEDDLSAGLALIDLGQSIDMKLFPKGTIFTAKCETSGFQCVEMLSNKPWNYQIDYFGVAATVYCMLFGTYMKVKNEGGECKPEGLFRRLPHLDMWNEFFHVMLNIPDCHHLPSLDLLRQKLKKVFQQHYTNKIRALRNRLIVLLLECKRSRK

[9] = biological target: protein kinases (human kinome) (Homo sapiens, UniProt Q9NYV4)
Chain of protein kinases (human kinome) (Homo sapiens, UniProt Q9NYV4) (Q9NYV4 whole entry): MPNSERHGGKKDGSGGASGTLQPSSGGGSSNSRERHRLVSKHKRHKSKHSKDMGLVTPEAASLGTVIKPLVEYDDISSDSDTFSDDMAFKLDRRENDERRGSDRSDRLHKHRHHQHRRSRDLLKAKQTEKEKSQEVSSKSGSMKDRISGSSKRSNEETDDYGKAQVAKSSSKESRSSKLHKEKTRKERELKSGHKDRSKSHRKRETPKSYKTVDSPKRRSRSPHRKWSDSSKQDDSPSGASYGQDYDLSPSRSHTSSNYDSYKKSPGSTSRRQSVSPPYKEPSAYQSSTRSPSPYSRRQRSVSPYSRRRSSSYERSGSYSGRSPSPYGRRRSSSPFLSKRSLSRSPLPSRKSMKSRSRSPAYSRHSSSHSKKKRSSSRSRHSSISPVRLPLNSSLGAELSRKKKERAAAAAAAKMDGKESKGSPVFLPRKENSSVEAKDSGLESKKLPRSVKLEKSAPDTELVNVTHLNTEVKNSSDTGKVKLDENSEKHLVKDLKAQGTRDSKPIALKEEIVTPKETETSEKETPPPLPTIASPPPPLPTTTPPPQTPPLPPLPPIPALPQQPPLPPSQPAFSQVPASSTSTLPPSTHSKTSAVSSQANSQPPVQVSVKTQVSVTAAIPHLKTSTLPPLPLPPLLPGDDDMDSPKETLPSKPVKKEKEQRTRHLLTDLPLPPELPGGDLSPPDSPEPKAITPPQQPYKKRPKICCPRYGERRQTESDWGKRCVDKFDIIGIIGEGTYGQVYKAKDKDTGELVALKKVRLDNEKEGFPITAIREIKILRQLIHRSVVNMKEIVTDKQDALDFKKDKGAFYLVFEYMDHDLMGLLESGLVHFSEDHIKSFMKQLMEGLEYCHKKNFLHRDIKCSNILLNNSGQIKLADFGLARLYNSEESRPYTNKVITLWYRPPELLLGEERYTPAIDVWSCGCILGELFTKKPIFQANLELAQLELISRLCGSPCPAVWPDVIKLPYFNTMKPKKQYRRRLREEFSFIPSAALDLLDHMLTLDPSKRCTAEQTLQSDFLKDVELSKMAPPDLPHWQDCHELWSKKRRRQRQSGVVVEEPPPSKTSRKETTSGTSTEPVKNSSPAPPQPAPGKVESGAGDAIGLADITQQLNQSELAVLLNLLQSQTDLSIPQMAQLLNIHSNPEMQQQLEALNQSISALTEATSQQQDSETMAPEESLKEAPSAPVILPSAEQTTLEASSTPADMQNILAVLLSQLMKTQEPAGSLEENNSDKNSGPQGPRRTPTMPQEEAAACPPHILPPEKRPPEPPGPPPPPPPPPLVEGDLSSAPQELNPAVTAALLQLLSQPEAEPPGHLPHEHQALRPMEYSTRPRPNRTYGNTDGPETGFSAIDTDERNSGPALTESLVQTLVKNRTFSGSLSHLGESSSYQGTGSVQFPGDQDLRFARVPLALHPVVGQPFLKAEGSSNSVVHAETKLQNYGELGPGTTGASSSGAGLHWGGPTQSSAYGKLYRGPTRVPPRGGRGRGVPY

[10] = biological target: protein kinases (human kinome) (Homo sapiens, UniProt Q14004); settings: for logFC CDK13: Accession Q14004-1
[11] = biological target: protein kinases (human kinome) (Homo sapiens, UniProt Q14289)
[12] = biological target: protein kinases (human kinome) (Homo sapiens, UniProt Q9HBH9)

SMILES: CN(C)C(=O)c1cc2cnc(Nc3ccc(N4CCN(CCCCNC(=O)COc5cccc6c5C(=O)N(C5CCC(=O)NC5=O)C6=O)CC4)cn3)nc2n1C1CCCC1 (centres unmarked) [BSJ.04.132]
- logFC ([1]; experiment wp084): −0.7569
- logFC PDK1 ([1]; experiment wp084): −0.7569
- logFC FASTKD3 ([2]; experiment wp084): −0.5428
- logFC PDK2 ([3]; experiment wp084): −0.5289
- logFC PDK2 (Q15119-1) ([3]; experiment wp084): −0.5289

SMILES: CC(C)(C)c1nc(-c2cccc(NS(=O)(=O)c3c(F)cccc3F)c2F)c(-c2ccnc(NCCOCCNC(=O)CCOCCOCCNc3cccc4c3C(=O)N(C3CCC(=O)NC3=O)C4=O)n2)s1 (centres unmarked) [DD.03.106]
- logFC ([1]; experiment wp147, 1 uM): −0.3363
- logFC PDK1 ([1]; experiment wp147, 1 uM): −0.3363
- logFC ([1]; experiment wp147, 4 uM): −0.6592
- logFC PDK1 ([1]; experiment wp147, 4 uM): −0.6592
- logFC FASTKD3 ([2]; experiment wp147, 4 uM): −0.8259
- logFC of CDK17 ([4]; experiment wp047): −0.72
- logFC of CDK17 ([4]; experiment wp147, 1 uM): −0.7615
- logFC of CDK17 ([4]; experiment wp147, 4 uM): −0.6232
- logFC CDK17 (Q00537) ([4]; experiment wp047): −0.72
- logFC CDK17 (Q00537) ([4]; experiment wp147, 1 uM): −0.7615
- logFC CDK17 (Q00537) ([4]; experiment wp147, 2 uM): −0.8288
- logFC CDK17 (Q00537) ([4]; experiment wp147, 4 uM): −0.6232
- logFC PDK2 (Q15119-1) ([3]; experiment wp147, 4 uM): −0.727

SMILES: CC(C)(C)c1nc(-c2cccc(NS(=O)(=O)c3c(F)cccc3F)c2F)c(-c2ccnc(NCCOCCNC(=O)CCOCCOCCNc3cccc4c3CN(C3CCC(=O)NC3=O)C4=O)n2)s1 (centres unmarked) [DD.03.107]
- logFC ([1]; experiment wp147, 1 uM): −0.4722
- logFC PDK1 ([1]; experiment wp147, 1 uM): −0.4722
- logFC ([1]; experiment wp147, 2 uM): −0.4534
- logFC PDK1 ([1]; experiment wp147, 2 uM): −0.4534
- logFC ([1]; experiment wp147, 4 uM): −1.108
- logFC PDK1 ([1]; experiment wp147, 4 uM): −1.108
- logFC FASTKD3 ([2]; experiment wp147, 1 uM): −0.6939
- logFC FASTKD3 ([2]; experiment wp147, 2 uM): −0.6931
- logFC FASTKD3 ([2]; experiment wp147, 4 uM): −1.191
- logFC PDK2 ([3]; experiment wp137): −0.3383
- logFC PDK2 ([3]; experiment wp147, 1 uM): −0.4963
- logFC PDK2 ([3]; experiment wp147, 2 uM): −0.5351
- logFC PDK2 ([3]; experiment wp147, 4 uM): −0.9269
- logFC PDK2 (Q15119-1) ([3]; experiment wp137): −0.3383
- logFC PDK2 (Q15119-1) ([3]; experiment wp147, 1 uM): −0.4963
- logFC PDK2 (Q15119-1) ([3]; experiment wp147, 2 uM): −0.5351
- logFC PDK2 (Q15119-1) ([3]; experiment wp147, 4 uM): −0.9269

SMILES: O=C(COc1cccc2c1C(=O)N(C1CCC(=O)NC1=O)C2=O)NCCCCCCCC(=O)NC1(c2ccc(-c3nc4ccn5c(=O)[nH]nc5c4cc3-c3ccccc3)cc2)CCC1 (centres unmarked) [INY.01.140.1]
- logFC ([1]; experiment wp081): −0.4328
- logFC PDK1 ([1]; experiment wp081): −0.4328
- logFC FASTKD3 ([2]; experiment wp081): −0.3846
- logFC PDK2 ([3]; experiment wp081): −0.6094
- logFC PDK2 (Q15119-1) ([3]; experiment wp081): −0.6094

SMILES: CC(C)S(=O)(=O)c1ccccc1Nc1nc(Nc2ccc(N3CCN(CCOCCOCCNC(=O)CNc4cccc5c4C(=O)N(C4CCC(=O)NC4=O)C5=O)CC3)cc2)ncc1Cl (centres unmarked) [TL12.186]
- logFC ([5]; CDK7 (P50613) protein abundance, degrader vs DMSO, down): −0.7603 and −0.6447 and −0.7438
- logFC CDK7 ([5]; experiment wp016): −0.7603
- logFC CDK7 ([5]; experiment wp131): −0.6447
- logFC CDK7 ([5]; experiment wp137): −0.7438
- logFC of CDK5 ([6]; Accession Q00535, experiment wp016): −0.9261
- logFC CDK5 (Q00535) ([6]; experiment wp016, direction of change down): −0.9261
- logFC CDK5 (Q00535) ([6]; experiment wp131): −1.3
- logFC CDK5 (Q00535) ([6]; experiment wp131, direction of change down): −1.3
- logFC CDK5 (Q00535) ([6]; experiment wp137): −1.234
- logFC CDK5 (Q00535) ([6]; experiment wp137, direction of change down): −1.234
- logFC STK35 ([7]; Accession Q8TDR2, experiment wp131, direction down): −0.4135
- logFC STK35 ([7]; Accession Q8TDR2, experiment wp137, direction down): −0.4079
- logFC STK35 ([7]; STK35 (Q8TDR2), experiment wp131): −0.4135
- logFC STK35 ([7]; STK35 (Q8TDR2), experiment wp137): −0.4079
- logFC ([8]; experiment wp131): −0.4983
- logFC ([8]; experiment wp137): −0.4422
- logFC BUB1 (O43683) ([8]; Experiment wp131): −0.4983
- logFC BUB1 (O43683) ([8]; Experiment wp137): −0.4422
- logFC CDK12 ([9]; Accession Q9NYV4-1, experiment wp016): −0.9185
- logFC CDK12 ([9]; Accession Q9NYV4-1, experiment wp131): −1.402
- logFC CDK12 ([9]; CDK12 (Q9NYV4-1), experiment wp016): −0.9185
- logFC CDK12 ([9]; CDK12 (Q9NYV4-1), experiment wp131): −1.402
- logFC CDK13 ([10]; experiment wp016): −0.5885
- logFC CDK13 ([10]; experiment wp131): −0.7903
- logFC CDK13 ([10]; experiment wp137): −0.7062
- logFC ([10]; CDK13 (Q14004-1), experiment wp016): −0.5885
- logFC CDK13 (Q14004-1) ([10]; experiment wp131): −0.7903
- logFC CDK13 (Q14004-1) ([10]; experiment wp137): −0.7062
- logFC FASTKD3 ([2]; experiment wp137): −0.6244
- logFC ([11]; PTK2B (Q14289-1) protein abundance, degrader vs DMSO, down): −3.722
- logFC PTK2B ([11]; PTK2B, accession Q14289-1, experiment wp016, direction of change down): −3.722
- logFC of CDK17 ([4]; experiment wp016): −0.84
- logFC of CDK17 ([4]; experiment wp131): −0.6165
- logFC CDK17 (Q00537) ([4]; experiment wp016): −0.84
- logFC CDK17 (Q00537) ([4]; experiment wp131): −0.6165
- logFC PDK2 ([3]; experiment wp137): −0.5022
- logFC PDK2 (Q15119-1) ([3]; experiment wp137): −0.5022

SMILES: C=CCn1c(=O)c2cnc(Nc3ccc(N4CCN(CCCNc5cccc6c5C(=O)N(C5CCC(=O)NC5=O)C6=O)CC4)cc3)nc2n1-c1cccc(C(C)(C)O)n1 (centres unmarked) [ZNL.02.096]
- logFC ([1]; experiment wp056): −0.3685
- logFC PDK1 ([1]; experiment wp056): −0.3685
- logFC FASTKD3 ([2]; experiment wp056): −0.7131
- logFC MKNK2 (Q9HBH9-1) ([12]; Experiment wp118, direction down): −0.4751
- logFC ([12]; MKNK2 (Q9HBH9-1), experiment wp118): −0.4751
- logFC PDK2 ([3]; experiment wp056): −0.5561
- logFC PDK2 ([3]; experiment wp118): −0.37
- logFC PDK2 (Q15119-1) ([3]; experiment wp056): −0.5561
- logFC PDK2 (Q15119-1) ([3]; experiment wp118): −0.37
